Columns and labels:
glucocorticoid receptor = conditions: in one or more of the above assays; assay not specified
Description: Evaluation of agonist or antagonist activity of compounds binding to the glucocorticoid receptor may be determined by any of the assays.
3. Modulation of Tyrosine Aminotransferase (TAT) Induction in Rat Hepatoma Cells
Testing of compounds for agonist or antagonist activity in induction of tyrosine aminotransferase (TAT) in rat hepatoma cells.
H4-II-E-C3 cells were incubated overnight in 96 well plates (20,000 cells/100 μL/well) in MEM medium containing 10% heat inactivated FBS and 1% nonessential amino acids. On the next day, cells were stimulated with the indicated concentrations of dexamethasone or test compound (dissolved in DMSO, final DMSO concentration 0.2%) for 18 hours. Control cells were treated with 0.2% DMSO. After 18 hours, the cells were lysed in a buffer containing 0.1% Triton X-100 and the TAT activity was measured in a photometric assay using tyrosine and alpha-ketoglutarate as substrates.
For measuring antagonist activity, the hepatoma cells were pre-stimulated by addition of dexamethasone (concentration ranges from 3×10^−9 M to 3×10^−8 M) shortly before the test compound was applied to the cells.
4. Modulation of MMTV-Luc Induction in HeLa Cells
Testing of compounds for agonist or antagonist activity in stimulation of MMTV-(mouse mammary tumor virus) promoter in HeLa cells. […]

[1] = target: T1, human glucocorticoid receptor (GR) complex (Homo sapiens, UniProt P04150); assay: Glucocorticoid receptor competitive binding assay (fluorescence polarization, TAMRA-labeled dexamethasone probe); conditions: result in words only; IC50 values not given
T1 construct: made in house; host or cells: insect cells (baculovirus expression), used as crude lysate
T1 sequence (P04150 1-777): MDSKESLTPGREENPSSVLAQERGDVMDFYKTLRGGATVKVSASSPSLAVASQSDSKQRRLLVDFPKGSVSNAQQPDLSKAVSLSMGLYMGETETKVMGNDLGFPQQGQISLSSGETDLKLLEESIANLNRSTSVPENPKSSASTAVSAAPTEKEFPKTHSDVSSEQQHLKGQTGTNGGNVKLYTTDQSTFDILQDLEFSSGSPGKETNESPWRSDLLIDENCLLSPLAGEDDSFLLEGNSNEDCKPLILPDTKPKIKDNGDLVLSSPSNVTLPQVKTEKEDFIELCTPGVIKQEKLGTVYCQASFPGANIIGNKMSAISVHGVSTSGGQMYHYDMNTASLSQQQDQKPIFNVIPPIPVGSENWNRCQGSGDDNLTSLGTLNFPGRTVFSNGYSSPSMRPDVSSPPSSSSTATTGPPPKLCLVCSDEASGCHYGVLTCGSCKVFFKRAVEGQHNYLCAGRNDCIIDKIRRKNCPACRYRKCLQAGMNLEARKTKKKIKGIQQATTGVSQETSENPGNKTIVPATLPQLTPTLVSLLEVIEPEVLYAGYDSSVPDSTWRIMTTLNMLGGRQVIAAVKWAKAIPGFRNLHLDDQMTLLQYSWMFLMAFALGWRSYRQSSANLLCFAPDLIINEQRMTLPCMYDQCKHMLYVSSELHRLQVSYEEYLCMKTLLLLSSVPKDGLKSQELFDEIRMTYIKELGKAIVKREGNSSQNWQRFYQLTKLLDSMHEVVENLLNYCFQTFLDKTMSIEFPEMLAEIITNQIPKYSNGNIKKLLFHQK
Description: Compounds of the invention were evaluated for binding to the steroid receptor by a fluorescence polarization competitive binding assay.
A. Glucocorticoid Receptor Competitive Binding Assay
Step 1. Characterization of the Fluorescent Probe
The wavelengths for maximum excitation and emission of the fluorescent probe should first be measured. An example of such a probe is rhodamine (TAMRA)-labeled dexamethasone.
The affinity of the probe for the steroid receptor was then determined in a titration experiment. The fluorescence polarization value of the probe in assay buffer was measured on an SLM-8100 fluorometer using the excitation and emission maximum values described above. Aliquots of expression vector lysate were added and fluorescence polarization was measured after each addition until no further change in polarization value was observed. Non-linear least squares regression analysis was used to calculate the dissociation constant of the probe from the polarization values obtained for lysate binding to the probe.
Step 2. Screening for Inhibitors of Probe Binding
This assay uses fluorescence polarization (FP) to quantitate the ability of test compounds to compete with tetramethyl rhodamine (TAMRA)-labeled dexamethasone for binding to a human glucocorticoid receptor (GR) complex prepared from an insect expression system. The assay buffer was: 10 mM TES, 50 mM KCl, 20 mM Na2MoO4.2H2O, 1.5 mM EDTA, 0.04% w/v CHAPS, 10% v/v glycerol, 1 mM dithiothreitol, pH 7.4. Test compounds were dissolved to 1 mM in neat DMSO and then further diluted to 10× assay concentration in assay buffer supplemented with 10% v/v DMSO. Test compounds were serially diluted at 10× assay concentrations in 10% DMSO-containing buffer in 96-well polypropylene plates. Binding reaction mixtures were prepared in 96-well black Dynex microtiter plates by sequential addition of the following assay components to each well: 15 μL of 10× test compound solution, 85 μL of GR-containing baculovirus lysate diluted 1:170 in assay buffer, and 50 μL of 15 nM TAMRA-labeled dexamethasone. Positive controls were reaction mixtures containing no test compound; negative controls (blanks) were reaction mixtures containing 0.7 μM to 2 μM dexamethasone. […] IC50 values were determined by iterative non-linear curve fitting of the FP signal data to a 4-parameter logistic equation.

Row | SMILES | activity as antagonists of the glucocorticoid receptor function (glucocorticoid receptor) | activity in the GR binding assay [1]
1 | CC(C)(CC(O)(Cc1ccccc1)C(=O)Nc1ccc2c(c1)COC2=O)c1ccccc1 (centres unmarked) [2-Benzyl-2-hydroxy-4-methyl-4-phenylpentanoic acid (1-oxo-1,3-dihydroisobenzofuran-5-yl)amide] | activity as antagonists | potent activity
2 | CC(C)(CC(O)(CC1CCCCC1)C(=O)Nc1ccc2c(c1)COC2=O)c1ccccc1 (centres unmarked) [2-Cyclohexylmethyl-2-hydroxy-4-methyl-4-phenylpentanoic acid (1-oxo-1,3-dihydroisobenzofuran-5-yl)amide] | activity as antagonists | potent activity
3 | COc1ccc(F)cc1C(C)(C)CC(O)(Cc1ccccc1Br)C(=O)Nc1ccc2c(c1)COC2=O (centres unmarked) [2-(2-Bromobenzyl)-4-(5-fluoro-2-methoxyphenyl)-2-hydroxy-4-methylpentanoic acid (1-oxo-1,3-dihydroisobenzofuran-5-yl)amide] |  | potent activity

Source: patent publication US7189758B2, “Glucocorticoid mimetics, methods of making them, pharmaceutical formulations, and uses thereof” (Boehringer Ingelheim Pharmaceuticals, Inc., priority 2002, dated 2007)
